Bridge positions count the residues as written; N and C are the ends. Square brackets hold non-standard residues; d marks the D form. Peptide text beside a SMILES is read from it. Mpa = O=C(O)CCS
System: porcine coronary smooth muscles
Assay: Assay of constrictor suppressing activity on porcine coronary smooth muscles (antagonism of endothelin-1 constriction)
Type: cell-based
Settings: for pA₂: antagonistic activity on constriction by endothelin-1 given cumulatively about 15 minutes after the compound, negative logarithm of molar concentration of antagonist shifting the dose response curve by a factor of 2; for Relative potency: antagonistic activity on the constriction of porcine coronary smooth muscles, Example 1 = 100
Method: • (1) Assay of Constrictor Suppressing Activity on Porcine Coronary Smooth Muscles Spiral strips 2 mm x 15 mm prepared from the coronary right ramus circumflexus from which the adventitial connective tissues and the endothelial cells were removed were set to 4 ml organ baths. The tension of each strip was detected by a force displacement transducer UL-10GR (Minebea), and recorded by a polygraph (NEC Sanei). The organ baths were maintained at 37°C, and filled with a Krebs-Henseleit solution (composition: 118 mM NaCl, 4.7 mM KCl, 2.5 mM CaCl₂, 1.2 mM KH₂PO₄, 25.0 mM NaHCO₃, 1.2 mM MgSO₄, 10.0 mM glucose) gassed with 95% O₂ and 5% CO₂. A tension of 1.25 to 1.5 g was applied to each of the strips, followed by equilibration for 1.5 hours. 60 mM KCl was repeatedly applied thereto at intervals of 30 minutes until the constriction response became constant. After additional equilibration for 1.5 hours, a sample for assay was given thereto. The constriction of the strips was normalized by the constriction response of the individual strips to 60 mM KCl and statistically processed. The suppressing activity was determined as a pA₂ value by giving endothelin-1 cumulatively about 15 minutes after the compound having a predetermined concentration was given, and comparing the constriction thereof with that of a control sample in which only endothelin-1 was given. […] Such a case has not been reported yet. […] The affinity for the receptor was assayed by the following method.

Row | Structure (SMILES) | pA₂ | Relative potency
1 | CC[C@H](C)[C@H](NC(=O)[C@H](CC(C)C)NC(=O)[C@@H](NC(=O)[C@H](CC(C)C)NC(=O)[C@H](Cc1c[nH]cn1)NC(=O)[C@@H]1CSSCCC(=O)N[C@@H](CO)C(=O)N[C@H]2CSSC[C@H](NC(=O)[C@H](CCC(=O)O)NC(=O)[C@H](CCCCN)NC(=O)[C@H](CC(=O)O)NC(=O)[C@H](CCSC)NC(=O)[C@H](CC(C)C)NC(=O)[C@H](CO)NC(=O)[C@H](CO)NC2=O)C(=O)N[C@@H](C(C)C)C(=O)N[C@@H](Cc2ccc(O)cc2)C(=O)N[C@@H](Cc2ccccc2)C(=O)N1)[C@@H](C)O)C(=O)N[C@@H](Cc1c[nH]c2ccccc12)C(=O)O [Example 11, [Mpr¹, Thr¹⁸, Leu¹⁹]-ET-1] ([Mpa]SCSSLMDKECVYFCHLTLIW-OH; disulfide 1-15, 3-11) | 6.5 | 6
2 | CC[C@H](C)[C@H](NC(=O)[C@H](CC(C)C)NC(=O)[C@@H](NC(=O)[C@H](CC(C)C)NC(=O)[C@H](Cc1c[nH]cn1)NC(=O)[C@@H]1CSSC[C@H](N)C(=O)N[C@@H](CO)C(=O)N[C@H]2CSSC[C@H](NC(=O)[C@H](CCC(=O)O)NC(=O)[C@H](CCCCN)NC(=O)[C@H](CC(=O)O)NC(=O)[C@H](CCSC)NC(=O)[C@H](C)NC(=O)[C@H](CO)NC(=O)[C@H](CO)NC2=O)C(=O)N[C@@H](C(C)C)C(=O)N[C@@H](Cc2ccc(O)cc2)C(=O)N[C@@H](Cc2ccccc2)C(=O)N1)[C@@H](C)O)C(=O)N[C@@H](Cc1c[nH]c2ccccc12)C(=O)O [Example 15, [Ala⁶, Thr¹⁸, Leu¹⁹]-ET-1] (H-CSCSSAMDKECVYFCHLTLIW-OH; disulfide 1-15, 3-11) | 6.5 | 6
